Reference: the NIST ThermoML archive (doi:10.1016/j.jct.2016.04.009)

Key:
[1] = DSC
[2] = molar heat capacity at constant pressure; settings: 101.33 kPa
[3] = Molar enthalpy of transition or fusion; settings: DSC

C[n+]1ccn(Cc2ccccc2)c1.O=S(=O)([N-]S(=O)(=O)C(F)(F)F)C(F)(F)F
Settings	Glass transition temperature [°C]
[1]	-56.4

[2], Liquid
Settings	molar heat capacity at constant pressure [J/K/mol]
258.09 K, Small sample (50 mg) DSC	588.22
263.2 K, Small sample (50 mg) DSC	589.8
268.3 K, Small sample (50 mg) DSC	592.39
273.38 K, Small sample (50 mg) DSC	596.83
278.51 K, Small sample (50 mg) DSC	597.13
283.61 K, Small sample (50 mg) DSC	599.43
288.72 K, Small sample (50 mg) DSC	601.59
293.82 K, Small sample (50 mg) DSC	603.91
298.15 K, Drop calorimetry	598.96
298.93 K, Small sample (50 mg) DSC	606.63
304.03 K, Small sample (50 mg) DSC	609.41
309.14 K, Small sample (50 mg) DSC	611.94
314.24 K, Small sample (50 mg) DSC	615.52
319.35 K, Small sample (50 mg) DSC	618.97
324.45 K, Small sample (50 mg) DSC	621.42
329.41 K, Small sample (50 mg) DSC	624.07
334.67 K, Small sample (50 mg) DSC	626.99
339.78 K, Small sample (50 mg) DSC	630.16
344.88 K, Small sample (50 mg) DSC	633.62
349.99 K, Small sample (50 mg) DSC	636.94
355.08 K, Small sample (50 mg) DSC	640.33

C[n+]1ccn(Cc2ccccc2)c1.O=S(=O)([O-])C(F)(F)C(F)F
Crystal
Settings	Molar enthalpy of transition or fusion [kcal/mol]	Triple point temperature [K]
[1]	–	315.4
[3]	5.64	–

Settings	Glass transition temperature [°C]
[1]	-44.0

[2]
Settings	molar heat capacity at constant pressure [J/K/mol]
278.51 K, Crystal, Small sample (50 mg) DSC	393.57
283.62 K, Crystal, Small sample (50 mg) DSC	402.07
288.72 K, Crystal, Small sample (50 mg) DSC	411.24
293.83 K, Crystal, Small sample (50 mg) DSC	423.44
298.15 K, Crystal, Drop calorimetry	434.75
298.15 K, Metastable liquid, Drop calorimetry	509.51
334.67 K, Liquid, Small sample (50 mg) DSC	527.08
339.77 K, Liquid, Small sample (50 mg) DSC	530.26
344.88 K, Liquid, Small sample (50 mg) DSC	533.48
349.98 K, Liquid, Small sample (50 mg) DSC	537.12
355.09 K, Liquid, Small sample (50 mg) DSC	540.53

C[n+]1ccn(Cc2ccccc2)c1.[Cl-] [1-benzyl-3-methyl-1H-imidazolium chloride]
Settings	Glass transition temperature [°C]
[1]	-8.4

molar heat capacity at constant pressure [J/K/mol], [2]
Settings	Crystal	Metastable liquid
261.06 K, Small sample (50 mg) DSC	238.97	–
265 K, Small sample (50 mg) DSC	243.67	–
270 K, Small sample (50 mg) DSC	252.99	–
275 K, Small sample (50 mg) DSC	261.15	–
277.11 K, Small sample (50 mg) DSC	–	329.64
280 K, Small sample (50 mg) DSC	269.17	330.72
285 K, Small sample (50 mg) DSC	278.83	332.88
289.14 K, Small sample (50 mg) DSC	288.47	–
290 K, Small sample (50 mg) DSC	–	335.29
295 K, Small sample (50 mg) DSC	–	338
298.15 K, Drop calorimetry	–	338.43
300 K, Small sample (50 mg) DSC	–	340.37
305 K, Small sample (50 mg) DSC	–	342.49
310 K, Small sample (50 mg) DSC	–	344.71
315 K, Small sample (50 mg) DSC	–	346.85
320 K, Small sample (50 mg) DSC	–	348.98
325 K, Small sample (50 mg) DSC	–	351.32
330 K, Small sample (50 mg) DSC	–	353.53
335 K, Small sample (50 mg) DSC	–	355.73
340 K, Small sample (50 mg) DSC	–	358
345 K, Small sample (50 mg) DSC	–	360.85
350 K, Small sample (50 mg) DSC	–	363.87
355 K, Small sample (50 mg) DSC	–	367.01

Cn1cc[n+](Cc2ccccc2)c1.F[P-](F)(F)(F)(F)F [1-benzyl-3-methylimidazolium hexafluorophosphate]
Crystal
Settings	Molar enthalpy of transition or fusion [kcal/mol]	Triple point temperature [K]
[1]	–	399.7
[3]	5.95	–

Settings	Glass transition temperature [°C]
[1]	-28.3

[2], Crystal
Settings	molar heat capacity at constant pressure [J/K/mol]
258.09 K, Small sample (50 mg) DSC	321.38
263.2 K, Small sample (50 mg) DSC	325.69
268.3 K, Small sample (50 mg) DSC	330.39
273.41 K, Small sample (50 mg) DSC	335.64
278.51 K, Small sample (50 mg) DSC	339.82
283.62 K, Small sample (50 mg) DSC	344.42
288.72 K, Small sample (50 mg) DSC	348.47
293.83 K, Small sample (50 mg) DSC	352.84
298.15 K, Drop calorimetry	360.42
298.93 K, Small sample (50 mg) DSC	357.16
304.04 K, Small sample (50 mg) DSC	361.74
309.14 K, Small sample (50 mg) DSC	366.16
314.25 K, Small sample (50 mg) DSC	371.17
319.35 K, Small sample (50 mg) DSC	376.2
324.46 K, Small sample (50 mg) DSC	380.3
329.56 K, Small sample (50 mg) DSC	384.8
334.67 K, Small sample (50 mg) DSC	389.73
339.77 K, Small sample (50 mg) DSC	394.64
344.88 K, Small sample (50 mg) DSC	399.86
349.98 K, Small sample (50 mg) DSC	404.92
355.09 K, Small sample (50 mg) DSC	410.63

C[n+]1ccn(Cc2ccccc2)c1.F[B-](F)(F)F [1-benzyl-3-methylimidazolium tetrafluoroborate]
Settings	Molar enthalpy of transition or fusion, [3] [kcal/mol]	Triple point temperature, [1] [K]
Crystal	4.57	346.2
Metastable crystal	3.97	336.5

Settings	Glass transition temperature [°C]
[1]	-37.8

[2]
Settings	molar heat capacity at constant pressure [J/K/mol]
261.7 K, Crystal, Small sample (50 mg) DSC	292.62
265 K, Crystal, Small sample (50 mg) DSC	295.4
270 K, Crystal, Small sample (50 mg) DSC	299.6
275 K, Crystal, Small sample (50 mg) DSC	304.74
275.65 K, Metastable crystal, Small sample (50 mg) DSC	283.68
280 K, Crystal, Small sample (50 mg) DSC	309.29
280 K, Metastable crystal, Small sample (50 mg) DSC	287.35
285 K, Crystal, Small sample (50 mg) DSC	313.98
285 K, Metastable crystal, Small sample (50 mg) DSC	292.48
290 K, Crystal, Small sample (50 mg) DSC	319.04
290 K, Metastable crystal, Small sample (50 mg) DSC	298.09
295 K, Crystal, Small sample (50 mg) DSC	324.16
295 K, Metastable crystal, Small sample (50 mg) DSC	303.57
298.15 K, Crystal, Drop calorimetry	325.85
298.15 K, Metastable crystal, Drop calorimetry	304.61
300 K, Crystal, Small sample (50 mg) DSC	329.01
300 K, Metastable crystal, Small sample (50 mg) DSC	307.82
305 K, Crystal, Small sample (50 mg) DSC	333.82
305 K, Metastable crystal, Small sample (50 mg) DSC	312.26
310 K, Crystal, Small sample (50 mg) DSC	338.5
310 K, Metastable crystal, Small sample (50 mg) DSC	316.56
315 K, Crystal, Small sample (50 mg) DSC	343.23
315 K, Metastable crystal, Small sample (50 mg) DSC	320.92
318.98 K, Metastable crystal, Small sample (50 mg) DSC	324.78
320 K, Crystal, Small sample (50 mg) DSC	348.35
325 K, Crystal, Small sample (50 mg) DSC	353.67
328.42 K, Crystal, Small sample (50 mg) DSC	356.83
345.5 K, Small sample (50 mg) DSC, Liquid	417.35
350 K, Small sample (50 mg) DSC, Liquid	420.2
355 K, Small sample (50 mg) DSC, Liquid	423.44
357.55 K, Small sample (50 mg) DSC, Liquid	424.91
